Molecules are shown by their SMILES.

The assay has as its target T1, heteromeric TRPC4:TRPC1 (Homo sapiens, UniProt Q9UBN4).
T1 construct: expressed in transfected cells; host or cells: HEK293, transiently transfected
As to the kind of experiment: Whole-cell recordings, HEK293 co-expressing TRPC4 and TRPC1. In kind it is cell-based. Conditions: 30 nM. The source says: Müller, Niemeyer, et al., Schaefer & Thorn-Seshold 2025: Ideal Efficacy Photoswitching of TRPC4/5 in Tissue 3.3 Activation of heteromeric TRPC4:TRPC1 and TRPC5:TRPC1
Supplementary Figure 15: Photoswitching of ionic currents through heteromeric TRPC4:TRPC1 and TRPC5:TRPC1 channel complexes. Whole cell recordings from HEK293 cells that were transiently transfected to express the indicated TRPC isoforms were obtained in the whole cell mode with a voltage and photoswitching paradigm as illustrated in (A). (B-D) Superimposed recordings of 20 consecutive sweeps are shown for cells that ony express TRPC4 or TRPC5 (left), and for cells that co-express the respective TRPC channel along with TRPC1 (right). Note the characteristic change of the current-voltage relationship with smaller inward currents and stronger outward rectification in cells that co-express TRPC1. […]
or 10 nM (all other panels). The data shown are representative for 4-12 patched cells, each.
Currents through heteromeric complexes that are composed of TRPC4:TRPC1 or TRPC5:TRPC1 subunits can be unequivocally recognized on the basis of their unique biophysical properties with smaller unitary and global inward current amplitudes and a marked outward rectification.44 We show […]
also the heteromeric complexes TRPC5:TRPC1 and TRPC4:TRPC1 that are formed upon co-expression with TRPC1 (Supplementary Fig. 15). […]

T1 sequence (Q9UBN4 whole entry): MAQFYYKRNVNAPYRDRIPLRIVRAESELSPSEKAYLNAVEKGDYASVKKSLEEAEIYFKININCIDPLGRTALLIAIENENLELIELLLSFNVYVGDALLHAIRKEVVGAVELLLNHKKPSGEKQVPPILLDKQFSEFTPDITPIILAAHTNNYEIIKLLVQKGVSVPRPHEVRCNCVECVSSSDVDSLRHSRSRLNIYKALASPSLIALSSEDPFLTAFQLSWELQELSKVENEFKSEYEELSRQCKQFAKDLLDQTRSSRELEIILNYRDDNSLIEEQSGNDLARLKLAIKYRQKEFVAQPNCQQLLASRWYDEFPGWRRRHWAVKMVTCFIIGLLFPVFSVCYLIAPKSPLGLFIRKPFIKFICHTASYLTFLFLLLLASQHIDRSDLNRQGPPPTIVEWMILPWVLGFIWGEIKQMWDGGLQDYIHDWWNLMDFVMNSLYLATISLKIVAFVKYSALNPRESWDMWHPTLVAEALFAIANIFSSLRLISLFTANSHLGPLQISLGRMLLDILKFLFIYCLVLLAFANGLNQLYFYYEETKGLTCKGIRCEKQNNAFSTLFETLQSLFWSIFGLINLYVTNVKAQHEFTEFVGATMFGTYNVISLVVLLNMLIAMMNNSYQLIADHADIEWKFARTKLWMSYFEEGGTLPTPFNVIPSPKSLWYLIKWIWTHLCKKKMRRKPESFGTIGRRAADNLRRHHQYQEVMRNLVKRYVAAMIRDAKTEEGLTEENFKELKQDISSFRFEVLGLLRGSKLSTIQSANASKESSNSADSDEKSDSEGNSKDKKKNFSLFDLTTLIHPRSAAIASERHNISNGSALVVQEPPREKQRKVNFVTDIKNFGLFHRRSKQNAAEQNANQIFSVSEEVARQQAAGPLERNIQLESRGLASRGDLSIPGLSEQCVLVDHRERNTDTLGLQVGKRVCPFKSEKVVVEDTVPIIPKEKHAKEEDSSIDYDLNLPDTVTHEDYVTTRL
T1 sequence (P48995 whole entry partner): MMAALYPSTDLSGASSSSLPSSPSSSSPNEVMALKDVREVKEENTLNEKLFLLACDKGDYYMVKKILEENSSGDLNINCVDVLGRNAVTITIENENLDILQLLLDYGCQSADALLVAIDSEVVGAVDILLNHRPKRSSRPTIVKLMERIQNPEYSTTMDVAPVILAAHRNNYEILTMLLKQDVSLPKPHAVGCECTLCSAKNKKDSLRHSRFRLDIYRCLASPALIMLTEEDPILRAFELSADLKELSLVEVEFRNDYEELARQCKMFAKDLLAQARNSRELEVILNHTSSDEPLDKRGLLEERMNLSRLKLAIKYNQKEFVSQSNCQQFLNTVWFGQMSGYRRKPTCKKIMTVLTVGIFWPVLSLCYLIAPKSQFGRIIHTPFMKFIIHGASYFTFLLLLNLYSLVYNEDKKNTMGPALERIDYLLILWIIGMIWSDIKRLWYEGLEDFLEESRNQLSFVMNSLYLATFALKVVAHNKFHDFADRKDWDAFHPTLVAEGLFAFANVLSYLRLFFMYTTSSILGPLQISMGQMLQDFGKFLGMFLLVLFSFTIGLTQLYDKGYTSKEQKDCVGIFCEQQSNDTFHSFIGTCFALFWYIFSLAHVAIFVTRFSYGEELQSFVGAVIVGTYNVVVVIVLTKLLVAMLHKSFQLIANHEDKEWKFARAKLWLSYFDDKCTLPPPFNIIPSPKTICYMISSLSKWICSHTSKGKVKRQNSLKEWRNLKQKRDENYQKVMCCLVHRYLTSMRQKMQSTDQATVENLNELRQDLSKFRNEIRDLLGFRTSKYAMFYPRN

Turning to `Cn1c(=O)n(CCCO)c(=O)c2c1nc(Oc1ccc(N=Nc3ccccc3)c(OC(F)(F)F)c1)n2Cc1ccc(Cl)cc1` [AzPico], the “Chromocontrol over heteromeric TRPC4:TRPC1 currents versus homomeric channels” value is recorded as “comparable chromocontrol”. On to `Cn1c(=O)n(CCCO)c(=O)c2c1nc(Oc1ccc(N=Nc3ccccc3)c(Cl)c1)n2Cc1ccc(Cl)cc1` [AzHC], for which the “Chromocontrol over heteromeric TRPC4:TRPC1 currents versus homomeric channels” value is given as “comparable chromocontrol”.
